Reference: the supplement of paper PMC10627819

Assays:
Experiment in all cases: Bliss interaction score (quartile over a dose matrix) (fitness difference); higher = more antagonism (negative = synergy)
B. subtilis 168 = test system: B. subtilis 168
Procedure, shortened: (§1)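 Fitness was OD595 at entry into stationary phase divided by the plate's robust no-drug mean and capped at 1; single-drug fitness was inferred from combination data. The Bliss score is observed minus expected (product) fitness, summarised by quartiles over technical, biological and donor/recipient replicates.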

S. aureus DSM 20231 = test system: S. aureus DSM 20231
Procedure, shortened: as §1

S. aureus Newman = test system: S. aureus Newman
Procedure, shortened: as §1

S. pneumoniae D39V = test system: S. pneumoniae D39V
Procedure, shortened: as §1
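Note: first quartile when negative (synergy) and third quartile when positive (antagonism).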

Row | SMILES | Bliss interaction score (B. subtilis 168; main component drawn) | Bliss interaction score (S. aureus DSM 20231; main component drawn) | Bliss interaction score (S. aureus Newman; main component drawn) | Bliss interaction score (S. pneumoniae D39V; main component drawn) | Bliss interaction score (B. subtilis 168) | Bliss interaction score (S. aureus DSM 20231) | Bliss interaction score (S. aureus Newman) | Bliss interaction score (S. pneumoniae D39V)
1 | CC(=O)OC[C@H]1O[C@@H]([S-])[C@H](OC(C)=O)[C@@H](OC(C)=O)[C@@H]1OC(C)=O.CCP(CC)CC.[Au+] [Auranofin] + CC[C@H](C)[C@H](N)C1=N[C@H](C(=O)N[C@@H](CC(C)C)C(=O)N[C@H](CCC(=O)O)C(=O)N[C@H](C(=O)N[C@H]2CCCCNC(=O)[C@H](CC(N)=O)NC(=O)[C@@H](CC(=O)O)NC(=O)[C@H](Cc3cnc[nH]3)NC(=O)[C@@H](Cc3ccccc3)NC(=O)[C@H]([C@@H](C)CC)NC(=O)[C@@H](CCCN)NC2=O)[C@@H](C)CC)CS1 [Bacitracin] | 0.165 | 0.0174 | 0.133 | -0.0398 |  |  |  | 
2 | CC(=O)OC[C@H]1O[C@@H]([S-])[C@H](OC(C)=O)[C@@H](OC(C)=O)[C@@H]1OC(C)=O.CCP(CC)CC.[Au+] [Auranofin] + CN1C2=CC=CC=C2N=C3C1=CC=CC3=O [Pyocyanin] |  |  |  |  | -0.0273 | 0.0747 | -0.158 | 0.0818
3 | CC(=O)OC[C@H]1O[C@@H]([S-])[C@H](OC(C)=O)[C@@H](OC(C)=O)[C@@H]1OC(C)=O.CCP(CC)CC.[Au+] [Auranofin] + CN(C)C(=O)C(CCN1CCC(O)(c2ccc(Cl)cc2)CC1)(c1ccccc1)c1ccccc1 [Loperamide] |  |  |  |  | 0.0417 | 0.0252 | 0.113 | 0.116
4 | CC(=O)OC[C@H]1O[C@@H]([S-])[C@H](OC(C)=O)[C@@H](OC(C)=O)[C@@H]1OC(C)=O.CCP(CC)CC.[Au+] [Auranofin] + CN(C)[C@@H]1C(O)=C(C(N)=O)C(=O)[C@@]2(O)C(O)=C3C(=O)c4c(O)ccc(Cl)c4[C@@](C)(O)[C@H]3C[C@@H]12 [Clortetracycline] |  |  |  |  | 0.0659 | 0.0317 | 0.0623 | 0.0541
5 | CC(=O)OC[C@H]1O[C@@H]([S-])[C@H](OC(C)=O)[C@@H](OC(C)=O)[C@@H]1OC(C)=O.CCP(CC)CC.[Au+] [Auranofin] + CN(C)c1cc(NC(=O)CNC(C)(C)C)c(O)c2c1C[C@H]1C[C@H]3[C@H](N(C)C)C(O)=C(C(N)=O)C(=O)[C@@]3(O)C(O)=C1C2=O [Tigecycline] |  |  |  |  | 0.0508 | -0.0332 | -0.066 | 0.0966
6 | CC(=O)OC[C@H]1O[C@@H]([S-])[C@H](OC(C)=O)[C@@H](OC(C)=O)[C@@H]1OC(C)=O.CCP(CC)CC.[Au+] [Auranofin] + CN(N=O)C(=O)N[C@@H](C=O)[C@@H](O)[C@H](O)[C@H](O)CO [Streptozotocin] |  |  |  |  | 0.0355 | -0.0317 | 0.0723 | 0.105
7 | CC(=O)OC[C@H]1O[C@@H]([S-])[C@H](OC(C)=O)[C@@H](OC(C)=O)[C@@H]1OC(C)=O.CCP(CC)CC.[Au+] [Auranofin] + CN[C@@H]1[C@H](O)[C@H](NC)[C@H]2O[C@@]3(O)C(=O)C[C@@H](C)O[C@H]3O[C@@H]2[C@H]1O [Spectinomycin] |  |  |  |  | 0.0604 | 0.0611 | 0.0532 | -0.162
8 | CC(=O)OC[C@H]1O[C@@H]([S-])[C@H](OC(C)=O)[C@@H](OC(C)=O)[C@@H]1OC(C)=O.CCP(CC)CC.[Au+] [Auranofin] + CN[C@@H]1[C@H](O[C@H]2[C@H](O[C@H]3[C@H](O)[C@@H](O)[C@H](N=C(N)N)[C@@H](O)[C@@H]3N=C(N)N)O[C@@H](C)[C@]2(O)C=O)O[C@@H](CO)[C@H](O)[C@H]1O [Streptomycin] |  |  |  |  | 0.0215 | -0.0362 | -0.0862 | -0.163
9 | CC(=O)OC[C@H]1O[C@@H]([S-])[C@H](OC(C)=O)[C@@H](OC(C)=O)[C@@H]1OC(C)=O.CCP(CC)CC.[Au+] [Auranofin] + CN[C@H](CC(C)C)C(=O)N[C@H]1C(=O)N[C@@H](CC(N)=O)C(=O)N[C@H]2C(=O)N[C@H]3C(=O)N[C@H](C(=O)N[C@H](C(=O)O)c4cc(O)cc(O)c4-c4cc3ccc4O)[C@H](O)c3ccc(c(Cl)c3)Oc3cc2cc(c3O[C@@H]2O[C@H](CO)[C@@H](O)[C@H](O)[C@H]2O[C@H]2C[C@](C)(N)[C@H](O)[C@H](C)O2)Oc2ccc(cc2Cl)[C@H]1O [Vancomycin] |  |  |  |  | 0.0381 | -0.0311 | 0.0325 | 0.0929
10 | CC(=O)OC[C@H]1O[C@@H]([S-])[C@H](OC(C)=O)[C@@H](OC(C)=O)[C@@H]1OC(C)=O.CCP(CC)CC.[Au+] [Auranofin] + CN[C@H](CC(C)C)C(=O)N[C@H]1C(=O)N[C@@H](CC(N)=O)C(=O)N[C@H]2C(=O)N[C@H]3C(=O)N[C@H](C(=O)N[C@H](C(=O)O)c4cc(O)cc(O)c4-c4cc3ccc4O)[C@H](O[C@H]3C[C@](C)(N)[C@@H](O)[C@H](C)O3)c3ccc(c(Cl)c3)Oc3cc2cc(c3O[C@@H]2O[C@H](CO)[C@@H](O)[C@H](O)[C@H]2O[C@H]2C[C@](C)(NCc3ccc(-c4ccc(Cl)cc4)cc3)[C@@H](O)[C@H](C)O2)Oc2ccc(cc2Cl)[C@H]1O [Oritavancin] |  |  |  |  | 0.0311 | 0.0219 | 0.0771 | 0.0463
11 | CC(=O)OC[C@H]1O[C@@H]([S-])[C@H](OC(C)=O)[C@@H](OC(C)=O)[C@@H]1OC(C)=O.CCP(CC)CC.[Au+] [Auranofin] + CO/N=C(\C(=O)N[C@@H]1C(=O)N2C(C(=O)O)=C(COC(C)=O)CS[C@H]12)c1csc(N)n1 [Cefotaxime] |  |  |  |  | -0.0473 | 0.0539 | 0.0713 | 0.0687
12 | CC(=O)OC[C@H]1O[C@@H]([S-])[C@H](OC(C)=O)[C@@H](OC(C)=O)[C@@H]1OC(C)=O.CCP(CC)CC.[Au+] [Auranofin] + CO/N=C(\C(=O)N[C@@H]1C(=O)N2C(C(=O)O)=C(COC(N)=O)CS[C@H]12)c1ccco1 [Cefuroxime] |  |  |  |  | -0.0911 | -0.239 | 0.0517 | 0.0434
13 | CC(=O)OC[C@H]1O[C@@H]([S-])[C@H](OC(C)=O)[C@@H](OC(C)=O)[C@@H]1OC(C)=O.CCP(CC)CC.[Au+] [Auranofin] + CO/N=C(\C(=O)N[C@@H]1C(=O)N2C(C(=O)[O-])=C(C[N+]3(C)CCCC3)CS[C@H]12)c1csc(N)n1 [Cefepime] |  |  |  |  | 0.046 | 0.0512 | 0.0786 | 0.114
14 | CC(=O)OC[C@H]1O[C@@H]([S-])[C@H](OC(C)=O)[C@@H](OC(C)=O)[C@@H]1OC(C)=O.CCP(CC)CC.[Au+] [Auranofin] + CO[C@@H]1[C@@H](OC(N)=O)[C@@H](O)[C@H](Oc2ccc3c(O)c(NC(=O)c4ccc(O)c(CC=C(C)C)c4)c(=O)oc3c2C)OC1(C)C [Novobiocin] |  |  |  |  | -0.0665 | -0.0224 | 0.105 | 0.0612
